The text below walks through data of patent publication US10314823B2, “Substituted 1,2-dihydro-3H-pyrrolo[1,2-c]imidazol-3-one antibacterial compounds” (IDORSIA PHARMACEUTICALS LTD, priority 2015, dated 2019).

Common to all, as to assay: Bacterial growth minimal inhibitory concentration (CLSI broth microdilution)
What all share (assay type): cell-based
In general terms: Dilution methods test growth across graded concentrations, often in twofold steps.

For one test, the system named is E. coli ATCC25922. As to conditions: Escherichia coli, ATCC25922; quinolone-sensitive strain; cation-adjusted Mueller-Hinton Broth. Here is the method: (§1) Minimal Inhibitory Concentrations (MICs; mg/L) were determined in cation-adjusted Mueller-Hinton Broth by a microdilution method following the description given in “Methods for Dilution Antimicrobial Susceptibility Tests for Bacteria that Grow Aerobically”, Approved standard, 7th ed., Clinical and Laboratory Standards Institute (CLSI) Document M7-A7, Wayne, Pa., USA (2006).
(§2) All Reference Example compounds were tested against several Gram-negative bacteria. K. pneumoniae A-651 is a multiply resistant strain (in particular quinolone-resistant), while E. coli ATCC25922 and P. aeruginosa ATCC27853 are quinolone-sensitive strains. The corresponding antibacterial test results are given in Table 1 hereafter (MICs in mg/L).

The test system of the next test is P. aeruginosa ATCC27853. To be noted: Pseudomonas aeruginosa, ATCC27853; quinolone-sensitive strain; cation-adjusted Mueller-Hinton Broth. Here is the method:
as §1, §2

In another test the test system is K. pneumoniae A-651. As to conditions: Klebsiella pneumoniae, A651; multiply resistant strain (in particular quinolone-resistant); cation-adjusted Mueller-Hinton Broth. Here is the method: as §1, §2

The structures appear in SMILES notation. Values after ≈ are worked out from the molar mass of the structure shown.

The MIC is the lowest concentration that inhibits growth of the organism. A high value points to a less susceptible organism. On to `C[C@@](CCN1Cc2cc(C#Cc3ccc(CN4CC(CO)OC4=O)cc3)cn2C1=O)(C(=O)NO)S(C)(=O)=O` (mixture of isomers) [Example 12, (2R)—N-hydroxy-4-(6-((4-((RS)-(5-(hydroxymethyl)-2-oxooxazolidin-3-yl)methyl)phenyl)ethynyl)-3-oxo-1H-pyrrolo[1,2-c]imidazol-2(3H)-yl)-2-methyl-2-(methylsulfonyl)butanamide], for which the MIC in the test on E. coli ATCC25922 was 1 µg/mL; against P. aeruginosa ATCC27853, 4 µg/mL; in the test on K. pneumoniae A-651, 2 µg/mL.
With `COCCN(C)CC(O)c1ccc(C#Cc2cc3n(c2)C(=O)N(CC[C@](C)(C(=O)NO)S(C)(=O)=O)C3)cc1` (mixture of isomers) [Example 28, (2R)—N-hydroxy-4-(6-((RS)-(4-(1-hydroxy-2-((2-methoxyethyl)(methyl)amino)ethyl)phenyl)ethynyl)-3-oxo-1H-pyrrolo[1,2-c]imidazol-2(3H)-yl)-2-methyl-2-(methylsulfonyl)butanamide], the MIC against E. coli ATCC25922 amounted to 1 µg/mL; in the test on P. aeruginosa ATCC27853, 2 µg/mL; against K. pneumoniae A-651, 8 µg/mL.
For `C[C@@](CCN1Cc2cc(C#CC#CC3(F)CCN(C4CC4)C3)cn2C1=O)(C(=O)NO)S(C)(=O)=O` (mixture of isomers) [Example 76, (2R)-4-(6-(((3RS)-1-cyclopropyl-3-fluoropyrrolidin-3-yl)buta-1,3-diyn-1-yl)-3-oxo-1H-pyrrolo[1,2-c]imidazol-2(3H)-yl)-N-hydroxy-2-methyl-2-(methylsulfonyl)butanamide], in that order: 0.125 µg/mL, 2 µg/mL and 0.25 µg/mL.
For `C[C@@](CCN1Cc2cc(C#CC#CC3(F)CCN(CCO)C3)cn2C1=O)(C(=O)NO)S(C)(=O)=O` (mixture of isomers) [Example 77, (2R)-4-(6-(((3RS)-3-fluoro-1-(2-hydroxyethyl)pyrrolidin-3-yl)buta-1,3-diyn-1-yl)-3-oxo-1H-pyrrolo[1,2-c]imidazol-2(3H)-yl)-N-hydroxy-2-methyl-2-(methylsulfonyl)butanamide], in that order: 0.5 µg/mL, 1 µg/mL and 1 µg/mL.
The corresponding values for `C[C@@](CCN1Cc2cc(C#CC#CC3(F)CCNC3)cn2C1=O)(C(=O)NO)S(C)(=O)=O` (mixture of isomers) [Example 78, (2R)-4-(6-(((3RS)-3-fluoropyrrolidin-3-yl)buta-1,3-diyn-1-yl)-3-oxo-1H-pyrrolo[1,2-c]imidazol-2(3H)-yl)-N-hydroxy-2-methyl-2-(methylsulfonyl)butanamide] are 1 µg/mL, 1 µg/mL and 1 µg/mL.
Regarding `CN1CCC(C)(C#CC#Cc2cc3n(c2)C(=O)N(CC[C@](C)(C(=O)NO)S(C)(=O)=O)C3)C1` (mixture of isomers) [Example 82, (2R)-4-(6-(((3RS)-1,3-dimethylpyrrolidin-3-yl)buta-1,3-diyn-1-yl)-3-oxo-1H-pyrrolo[1,2-c]imidazol-2(3H)-yl)-N-hydroxy-2-methyl-2-(methylsulfonyl)butanamide], the MIC against E. coli ATCC25922 amounted to 2 µg/mL; against P. aeruginosa ATCC27853, 4 µg/mL; with K. pneumoniae A-651 it was 2 µg/mL.
As for `CN1CCC(C#CC#Cc2cc3n(c2)C(=O)N(CC[C@](C)(C(=O)NO)S(C)(=O)=O)C3)C1` (mixture of isomers) [Example 83, (2R)—N-hydroxy-2-methyl-4-(6-(((3RS)-1-methylpyrrolidin-3-yl)buta-1,3-diyn-1-yl)-3-oxo-1H-pyrrolo[1,2-c]imidazol-2(3H)-yl)-2-(methylsulfonyl)butanamide], the MIC amounted to 2 µg/mL in the test on E. coli ATCC25922, 1 µg/mL with P. aeruginosa ATCC27853 and 1 µg/mL with K. pneumoniae A-651.
With `C[C@@](CCN1Cc2cc(C#Cc3ccc(CN4CC[C@H](N)[C@@H](F)C4)cc3)cn2C1=O)(C(=O)NO)S(C)(=O)=O` (relative stereo) [Example 13, (2R)-4-(6-((4-(((3S*,4S*)-4-amino-3-fluoropiperidin-1-yl)methyl)phenyl)ethynyl)-3-oxo-1H-pyrrolo[1,2-c]imidazol-2(3H)-yl)-N-hydroxy-2-methyl-2-(methylsulfonyl)butanamide], the MIC with E. coli ATCC25922, in the test with P. aeruginosa ATCC27853 and in the test on K. pneumoniae A-651 was 1 µg/mL (≈ 1.83 µM) each time.
Turning to `C[C@@](CCN1Cc2cc(C#Cc3ccc(CN4CC[C@H](O)[C@@H](F)C4)cc3)cn2C1=O)(C(=O)NO)S(C)(=O)=O` (relative stereo) [Example 36, (2R)-4-(6-((4-(((3S*,4S*)-3-fluoro-4-hydroxypiperidin-1-yl)methyl)phenyl)ethynyl)-3-oxo-1H-pyrrolo[1,2-c]imidazol-2(3H)-yl)-N-hydroxy-2-methyl-2-(methylsulfonyl)butanamide], the values for the minimum inhibitory concentration (MIC) against E. coli ATCC25922, in the test with P. aeruginosa ATCC27853 and against K. pneumoniae A-651 were 0.25 µg/mL (≈ 0.457 µM), 1 µg/mL (≈ 1.83 µM) and 0.5 µg/mL (≈ 0.915 µM), respectively.
The corresponding values for `C[C@@](CCN1Cc2cc(C#Cc3ccc(CN4CC[C@H](O)[C@H](F)C4)cc3)cn2C1=O)(C(=O)NO)S(C)(=O)=O` (relative stereo) [Example 42, (2R)-4-(6-((4-(((3R*,4S*)-3-fluoro-4-hydroxypiperidin-1-yl)methyl)phenyl)ethynyl)-3-oxo-1H-pyrrolo[1,2-c]imidazol-2(3H)-yl)-N-hydroxy-2-methyl-2-(methylsulfonyl)butanamide] are 0.5 µg/mL (≈ 0.915 µM), 2 µg/mL (≈ 3.66 µM) and 1 µg/mL (≈ 1.83 µM).
The corresponding values for `CN1C[C@H](O)[C@@H](C#CC#Cc2cc3n(c2)C(=O)N(CC[C@](C)(C(=O)NO)S(C)(=O)=O)C3)C1` (relative stereo) [Example 99, (2R)—N-hydroxy-4-(6-(((3S*,4R*)-4-hydroxy-1-methylpyrrolidin-3-yl)buta-1,3-diyn-1-yl)-3-oxo-1H-pyrrolo[1,2-c]imidazol-2(3H)-yl)-2-methyl-2-(methylsulfonyl)butanamide] are 2 µg/mL (≈ 4.32 µM), 2 µg/mL (≈ 4.32 µM) and 2 µg/mL (≈ 4.32 µM).
Turning to `C[C@@](CCN1Cc2cc(C#Cc3ccc([C@@H](O)CN4CCOCC4)cc3)cn2C1=O)(C(=O)NO)S(C)(=O)=O` (single isomer, unassigned) [Example 1], the MIC with E. coli ATCC25922 amounted to 1 µg/mL (≈ 1.84 µM); in the test with P. aeruginosa ATCC27853, 2 µg/mL (≈ 3.67 µM); against K. pneumoniae A-651, 2 µg/mL (≈ 3.67 µM).
Consider `C[C@@](CCN1Cc2cc(C#Cc3ccc([C@H](O)CN4CCOCC4)cc3)cn2C1=O)(C(=O)NO)S(C)(=O)=O` (single isomer, unassigned) [Example 2], for which the MIC against E. coli ATCC25922, in the test on P. aeruginosa ATCC27853 and in the test with K. pneumoniae A-651 was 1 µg/mL (≈ 1.84 µM) each time.
With `CN1CC[C@@](F)(C#CC#Cc2cc3n(c2)C(=O)N(CC[C@](C)(C(=O)NO)S(C)(=O)=O)C3)C1.O=C(O)C(F)(F)F` (single isomer, unassigned) [Example 71], the MIC turned out to be 0.25 µg/mL against E. coli ATCC25922, 2 µg/mL in the test with P. aeruginosa ATCC27853 and 0.5 µg/mL with K. pneumoniae A-651.
For the molecule `CN1CC[C@](F)(C#CC#Cc2cc3n(c2)C(=O)N(CC[C@](C)(C(=O)NO)S(C)(=O)=O)C3)C1.O=C(O)C(F)(F)F` (single isomer, unassigned) [Example 72], the MIC against E. coli ATCC25922 was 0.5 µg/mL; against P. aeruginosa ATCC27853 it was 2 µg/mL; against K. pneumoniae A-651 it was 0.5 µg/mL.
Consider `CN1C[C@@H](C#CC#Cc2cc3n(c2)C(=O)N(CC[C@](C)(C(=O)NO)S(C)(=O)=O)C3)C[C@@H]1CO` (single isomer, unassigned) [Example 94], for which the MIC was found to be 1 µg/mL (≈ 2.1 µM) against E. coli ATCC25922, 0.5 µg/mL (≈ 1.05 µM) with P. aeruginosa ATCC27853 and 1 µg/mL (≈ 2.1 µM) against K. pneumoniae A-651.
With `C[C@@](CCN1Cc2cc(C#Cc3ccc(CN4CC5(COC5)C4)cc3)cn2C1=O)(C(=O)NO)S(C)(=O)=O` [Example 3, (2R)-4-(6-((4-((2-oxa-6-azaspiro[3.3]heptan-6-yl)methyl)phenyl)ethynyl)-3-oxo-1H-pyrrolo[1,2-c]imidazol-2(3H)-yl)-N-hydroxy-2-methyl-2-(methylsulfonyl)butanamide], the MIC against E. coli ATCC25922 came out at 0.25 µg/mL (≈ 0.475 µM); against P. aeruginosa ATCC27853, 1 µg/mL (≈ 1.9 µM); in the test on K. pneumoniae A-651, 1 µg/mL (≈ 1.9 µM).
Take `C[C@@](CCN1Cc2cc(C#Cc3ccc(CN4CC5C(N)C5C4)cc3)cn2C1=O)(C(=O)NO)S(C)(=O)=O` (stereo partly drawn) [Example 4, (2R)-4-(6-((4-((6-amino-3-azabicyclo[3.1.0]hexan-3-yl)methyl)phenyl)ethynyl)-3-oxo-1H-pyrrolo[1,2-c]imidazol-2(3H)-yl)-N-hydroxy-2-methyl-2-(methylsulfonyl)butanamide]: the MIC against E. coli ATCC25922, in the test on P. aeruginosa ATCC27853 and with K. pneumoniae A-651 was 2 µg/mL (≈ 3.8 µM) each time.
Turning to `C[C@@](CCN1Cc2cc(C#Cc3ccc(COC(=O)N4CCC(O)CC4)cc3)cn2C1=O)(C(=O)NO)S(C)(=O)=O` [Example 5, (3R)-4-((2-(4-(hydroxyamino)-3-methyl-3-(methylsulfonyl)-4-oxobutyl)-3-oxo-2,3-dihydro-1H-pyrrolo[1,2-c]imidazol-6-yl)ethynyl)benzyl 4-hydroxypiperidine-1-carboxylate], the MIC turned out to be 0.25 µg/mL (≈ 0.437 µM) in the test with E. coli ATCC25922, 2 µg/mL (≈ 3.49 µM) in the test on P. aeruginosa ATCC27853 and 1 µg/mL (≈ 1.75 µM) with K. pneumoniae A-651.
For `CC(=O)N1CC(O)(c2ccc(C#Cc3cc4n(c3)C(=O)N(CC[C@](C)(C(=O)NO)S(C)(=O)=O)C4)cc2)C1` [Example 6, (2R)-4-(6-((4-(1-acetyl-3-hydroxyazetidin-3-yl)phenyl)ethynyl)-3-oxo-1H-pyrrolo[1,2-c]imidazol-2(3H)-yl)-N-hydroxy-2-methyl-2-(methylsulfonyl)butanamide], in that order: 2 µg/mL (≈ 3.78 µM), 1 µg/mL (≈ 1.89 µM) and 4 µg/mL (≈ 7.57 µM).
